Experimental data published in US10150728B2, “Alkylene derivatives” (Shionogi & Co., Ltd., priority 2013, dated 2018).

Biological target: recombinant human ACC2 (Homo sapiens (Human), UniProt O00763)
Test: Measurement of inhibitory activity on human ACC2 (MALDI-TOF MS, acetyl CoA to malonyl CoA conversion)
Assay type: biochemical
Conditions: Tables 155-159
In short: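 His-tagged human ACC2 (residues 27–2458) from baculovirus-infected Sf-9 cells was preincubated 1 h in pH 7.4 HEPES-KOH buffer with MgCl2, 6-10 mM potassium citrate, glutathione and BSA. Substrate solution held 1 mM ATP, 0.8 mM acetyl CoA and 25-50 mM bicarbonate. After 1–3 h at room temperature, malonyl CoA/(malonyl+acetyl CoA) was read by negative-mode MALDI-TOF MS; citrate, bicarbonate and time varied by enzyme lot.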

Chain of recombinant human ACC2 (O00763 27-2458): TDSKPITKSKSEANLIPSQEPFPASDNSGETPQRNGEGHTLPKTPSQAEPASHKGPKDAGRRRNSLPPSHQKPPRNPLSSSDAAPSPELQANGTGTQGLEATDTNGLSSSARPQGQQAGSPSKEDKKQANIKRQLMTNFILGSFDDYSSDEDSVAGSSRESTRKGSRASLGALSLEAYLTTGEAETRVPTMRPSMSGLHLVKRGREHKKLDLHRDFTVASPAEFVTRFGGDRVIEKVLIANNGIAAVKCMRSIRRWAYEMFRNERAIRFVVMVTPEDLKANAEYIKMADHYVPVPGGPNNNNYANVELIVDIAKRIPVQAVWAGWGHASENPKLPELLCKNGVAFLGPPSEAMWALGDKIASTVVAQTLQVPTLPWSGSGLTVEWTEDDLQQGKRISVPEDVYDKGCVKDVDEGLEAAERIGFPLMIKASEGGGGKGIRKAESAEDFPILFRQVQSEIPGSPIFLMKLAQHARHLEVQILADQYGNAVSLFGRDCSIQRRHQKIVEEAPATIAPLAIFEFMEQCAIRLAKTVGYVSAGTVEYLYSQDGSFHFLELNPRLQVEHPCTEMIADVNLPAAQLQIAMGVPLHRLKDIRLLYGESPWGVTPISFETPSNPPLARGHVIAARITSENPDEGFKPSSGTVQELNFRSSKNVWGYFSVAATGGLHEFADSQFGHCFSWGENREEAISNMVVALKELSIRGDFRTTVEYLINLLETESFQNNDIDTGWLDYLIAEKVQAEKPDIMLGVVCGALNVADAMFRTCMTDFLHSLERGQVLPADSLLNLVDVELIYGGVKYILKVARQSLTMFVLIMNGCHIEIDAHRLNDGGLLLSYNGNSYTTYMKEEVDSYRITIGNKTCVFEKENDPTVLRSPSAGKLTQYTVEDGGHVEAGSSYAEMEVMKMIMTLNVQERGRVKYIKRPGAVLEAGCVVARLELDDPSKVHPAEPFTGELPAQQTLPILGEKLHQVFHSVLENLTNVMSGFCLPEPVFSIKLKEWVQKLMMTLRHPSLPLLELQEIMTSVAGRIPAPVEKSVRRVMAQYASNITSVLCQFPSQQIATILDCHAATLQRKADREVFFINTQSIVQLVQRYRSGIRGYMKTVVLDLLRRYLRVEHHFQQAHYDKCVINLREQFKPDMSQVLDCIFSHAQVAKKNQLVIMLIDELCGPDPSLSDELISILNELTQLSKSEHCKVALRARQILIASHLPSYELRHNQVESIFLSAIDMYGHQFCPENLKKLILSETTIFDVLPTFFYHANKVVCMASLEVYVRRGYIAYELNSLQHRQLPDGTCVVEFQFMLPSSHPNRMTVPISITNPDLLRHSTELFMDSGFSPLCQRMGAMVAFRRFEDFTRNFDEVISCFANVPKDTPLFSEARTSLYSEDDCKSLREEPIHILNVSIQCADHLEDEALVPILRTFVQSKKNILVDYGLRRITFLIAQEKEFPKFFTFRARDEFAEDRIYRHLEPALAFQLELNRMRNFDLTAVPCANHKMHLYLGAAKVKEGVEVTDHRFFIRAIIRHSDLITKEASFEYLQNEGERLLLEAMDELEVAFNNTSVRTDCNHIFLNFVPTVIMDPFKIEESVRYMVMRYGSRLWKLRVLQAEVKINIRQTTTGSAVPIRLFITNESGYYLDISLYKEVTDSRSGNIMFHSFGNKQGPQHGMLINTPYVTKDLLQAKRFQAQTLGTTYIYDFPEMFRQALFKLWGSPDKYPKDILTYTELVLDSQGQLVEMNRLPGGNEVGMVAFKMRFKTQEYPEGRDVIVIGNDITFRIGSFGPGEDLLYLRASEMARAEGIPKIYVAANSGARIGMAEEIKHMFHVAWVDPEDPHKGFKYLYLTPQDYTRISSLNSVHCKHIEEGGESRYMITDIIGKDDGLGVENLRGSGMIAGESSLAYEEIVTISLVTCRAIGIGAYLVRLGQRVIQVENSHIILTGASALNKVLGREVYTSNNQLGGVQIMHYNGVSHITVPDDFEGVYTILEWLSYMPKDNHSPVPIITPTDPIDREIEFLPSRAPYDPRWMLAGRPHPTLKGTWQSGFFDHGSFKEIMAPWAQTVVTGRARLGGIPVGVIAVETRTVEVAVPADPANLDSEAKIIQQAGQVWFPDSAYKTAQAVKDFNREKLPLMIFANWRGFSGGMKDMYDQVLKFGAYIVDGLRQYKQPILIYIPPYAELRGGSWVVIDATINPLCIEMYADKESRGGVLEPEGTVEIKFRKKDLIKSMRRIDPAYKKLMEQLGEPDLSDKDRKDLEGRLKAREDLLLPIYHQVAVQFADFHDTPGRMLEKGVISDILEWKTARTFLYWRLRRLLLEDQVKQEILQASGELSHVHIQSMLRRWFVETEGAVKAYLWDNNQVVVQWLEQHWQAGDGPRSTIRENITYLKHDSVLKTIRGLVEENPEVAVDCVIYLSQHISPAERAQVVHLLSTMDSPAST

Going from CC(=O)N[C@@H](C)CO[C@H]1CC[C@H](Oc2ncc3nc(OC4COC4)sc3c2F)CC1 [Compound I-273] to CC(=O)N[C@@H](C)CO[C@H]1CC[C@H](Oc2ncc3nc(O[C@H]4CCOC4)sc3c2F)CC1 [Compound I-276], the IC50 falls from 35 nM to 13 nM (2.7-fold).

First: CC(=O)N[C@@H](C)CO[C@H]1CC[C@H](Oc2ncc3nc(OCC4(F)COC4)sc3c2F)CC1 [Compound I-274]
Second: CC(=O)N[C@@H](C)CO[C@H]1CC[C@H](Oc2ncc3nc(OCC4(C#N)CC4)sc3c2F)CC1 [Compound I-275]
The IC50 of the first is 1.7-fold lower: 90 nM for the first, 156 nM for the second.

CC(=O)N[C@@H](C)CO[C@H]1CC[C@H](Oc2ncc3nc(O[C@@H]4CCOC4)sc3c2F)CC1 [Compound I-277] and C[C@@H](CO[C@H]1CC[C@H](Oc2ncc3nc(OC4CC4)sc3c2F)CC1)NC(N)=O [Compound I-285] are within 1.5-fold of each other in IC50: 32 nM for the first, 38 nM for the second.

Going from CC(=O)N[C@@H](C)CO[C@H]1CC[C@H](Oc2cc(C)c3nc(N4CC(F)(F)C4)sc3n2)CC1 [Compound I-278] to CCOc1nc2c(C)cc(O[C@H]3CC[C@H](OC[C@H](C)NC(C)=O)CC3)nc2s1 [Compound I-279], the IC50 falls from 87 nM to 8 nM (11-fold).

First: CO[C@H]1C[C@H](Oc2nc3ccc(OC[C@H]4C[C@H](OC[C@H](C)NC(C)=O)C4)nc3s2)C1 [Compound I-280]
Second: CO[C@H]1C[C@@H](Oc2nc3ccc(OC[C@H]4C[C@H](OC[C@H](C)NC(C)=O)C4)nc3s2)C1 [Compound I-281]
The IC50 of the first is 1.9-fold higher: 79 nM for the first, 41 nM for the second. The second is the more potent here.

First: CC(=O)N[C@@H](C)CO[C@H]1C[C@H](COc2ccc3nc(N(C)CC#N)sc3n2)C1 [Compound I-282]
Second: CC(=O)N[C@@H](C)CO[C@H]1C[C@H](COc2ccc3nc(OCC(C)(C)C#N)sc3n2)C1 [Compound I-302]
The IC50 of the first is 17-fold higher: 892 nM for the first, 52 nM for the second.

Compared with CC(=O)N[C@@H](C)CO[C@H]1C[C@H](COc2ccc3nc(O[C@@H]4CO[C@@H]5CCO[C@@H]54)sc3n2)C1 [Compound I-283], CC(=O)N[C@@H](C)CO[C@H]1C[C@H](COc2ccc3nc(OC4COC4)sc3n2)C1 [Compound I-307] is 23-fold lower in IC50: 984 nM for the first, 43 nM for the second.

Going from CC(=O)N[C@@H](C)CO[C@H]1C[C@H](COc2ccc3nc(N4CC5(CCC5)C4)sc3n2)C1 [Compound I-284] to CC(=O)N[C@@H](C)CO[C@H]1C[C@H](COc2ccc3nc(N4CC[C@@H](F)C4)sc3n2)C1 [Compound I-287], the IC50 rises from 17 nM to 51 nM (3-fold).

Going from CC(=O)N[C@@H](C)CO[C@H]1C[C@H](COc2ccc3nc(N4CC(F)(F)C4)sc3c2F)C1 [Compound I-286] to CC(=O)N[C@@H](C)CO[C@H]1C[C@H](COc2nccc(N3CC(F)(F)C3)c2Cl)C1 [Compound I-323], the IC50 rises from 125 nM to 345 nM (2.8-fold).

Compared with CC(=O)N[C@@H](C)CO[C@H]1C[C@H](COc2ccc3nc(N4CCC(C#N)C4)sc3n2)C1 (stereo partly drawn) [Compound I-288], CC(=O)N[C@@H](C)CO[C@H]1C[C@H](COc2ccc3nc(N4CC[C@H](F)C4)sc3n2)C1 [Compound I-289] is 6.9-fold lower in IC50: 759 nM for the first, 110 nM for the second. The second is the more potent here.

Compared with C[C@@H](CO[C@H]1CC[C@H](Oc2cc3sc(OCC4CC4(F)F)nc3cn2)CC1)NC(=O)CO (stereo partly drawn) [Compound I-290], C[C@@H](CO[C@H]1CC[C@H](Oc2cc3sc(OCC4CC4(F)F)nc3cn2)CC1)NC(N)=O (stereo partly drawn) [Compound I-291] is 2.6-fold lower in IC50: 82 nM for the first, 32 nM for the second.

CC(=O)N[C@@H](C)CO[C@H]1C[C@](C)(COc2ccc3nc(OC4CC4)sc3n2)C1 [Compound I-292] and CC(=O)N[C@@H](C)CO[C@H]1C[C@](F)(COc2ccc3nc(OC4CC4)sc3n2)C1 [Compound I-298] are the same in IC50: 52 nM for the first, 52 nM for the second.

Compared with CC(=O)N[C@@H](C)CO[C@H]1C[C@H](COc2ccc3nc(O[C@H]4C[C@H](O)C4)sc3n2)C1 [Compound I-293], CC(=O)N[C@@H](C)CO[C@H]1C[C@H](COc2ccc3nc(O[C@H]4C[C@@H](O)C4)sc3n2)C1 [Compound I-294] is 1.8-fold higher in IC50: 171 nM for the first, 300 nM for the second.

Compared with CC(=O)N[C@@H](C)CO[C@H]1C[C@H](COc2ccc3nc(O[C@H]4C[C@H](F)C4)sc3n2)C1 [Compound I-295], CC(=O)N[C@@H](C)CO[C@H]1C[C@H](COc2ccc3nc(O[C@H]4C[C@@H](F)C4)sc3n2)C1 [Compound I-296] is 2-fold lower in IC50: 12 nM for the first, 6 nM for the second.

Going from CC(=O)N[C@@H](C)CO[C@H]1C[C@](F)(COc2ccc3nc(OCC(F)F)sc3n2)C1 [Compound I-297] to CC(=O)N[C@@H](C)CO[C@H]1C[C@](F)(COc2ccc3nc(OC(C)C)sc3n2)C1 [Compound I-299], the IC50 falls from 42 nM to 26 nM (1.6-fold). The second is the more potent here.

First: CC(=O)N[C@@H](C)CO[C@H]1C[C@H](COc2ccc3nc(OCC(C)(C)O)sc3n2)C1 [Compound I-300]
Second: CC(=O)N[C@@H](C)CO[C@H]1C[C@H](COc2ccc3nc(OC[C@@H](C)F)sc3n2)C1 [Compound I-306]
The IC50 of the first is 11-fold higher: 165 nM for the first, 15 nM for the second.

First: CC(=O)N[C@@H](C)CO[C@H]1C[C@H](COc2ccc3nc(OC4CC(C#N)C4)sc3n2)C1 (stereo partly drawn) [Compound I-301]
Second: CC(=O)N[C@@H](C)CO[C@H]1C[C@H](COc2ccc3nc(OCC4CC4)sc3n2)C1 [Compound I-308]
The IC50 of the first is 6.2-fold higher: 37 nM for the first, 6 nM for the second.

Going from CC(=O)N[C@@H](C)CO[C@H]1C[C@H](COc2ccc3nc(Oc4ccc(F)nc4)sc3n2)C1 [Compound I-303] to CC(=O)N[C@@H](C)CO[C@H]1C[C@H](COc2ccc3nc(Oc4ccc(F)cn4)sc3n2)C1 [Compound I-304], the IC50 rises from 68 nM to 242 nM (3.6-fold). The first is the more potent here.

CC(=O)N[C@@H](C)CO[C@H]1C[C@H](COc2ccc3nc(Oc4ccc(F)cc4)sc3n2)C1 [Compound I-305] and CC(=O)N[C@@H](C)CO[C@H]1C[C@H](COc2nccc(-c3ccc(F)cc3)c2F)C1 [Compound I-309] are within 1.5-fold of each other in IC50: 22 nM for the first, 24 nM for the second.

Going from CC(=O)N[C@@H](C)CO[C@H]1C[C@H](COc2nccc(-c3ccc(F)cc3)c2Cl)C1 [Compound I-310] to CC(=O)N[C@@H](C)CO[C@H]1C[C@H](COc2nccc(-c3ccc(F)cc3)c2C)C1 [Compound I-313], the IC50 rises from 34 nM to 72 nM (2.1-fold). The first is the more potent here.

Going from CC(=O)N[C@@H](C)CO[C@H]1C[C@H](COc2nccc(-c3ncc(F)cn3)c2F)C1 [Compound I-311] to CC(=O)N[C@@H](C)CO[C@H]1C[C@H](COc2nccc(-c3ncc(C(F)(F)F)cn3)c2Cl)C1 [Compound I-322], the IC50 falls from 106 nM to 63 nM (1.7-fold).

Compared with CC(=O)N[C@@H](C)CO[C@H]1C[C@H](COc2nccc(-c3ncc(OC(C)C)cn3)c2Cl)C1 [Compound I-312], COc1cnc(-c2ccnc(OC[C@H]3C[C@H](OC[C@H](C)NC(C)=O)C3)c2Cl)nc1 [Compound I-321] is 2.4-fold lower in IC50: 401 nM for the first, 167 nM for the second. The second is the more potent here.

Compared with CC(=O)N[C@@H](C)CO[C@H]1C[C@H](COc2nccc(OCC3CC3)c2Cl)C1 [Compound I-314], CC(=O)N[C@@H](C)CO[C@H]1C[C@H](COc2nccc(OCC3CC3(F)F)c2Cl)C1 (stereo partly drawn) [Compound I-316] is 3-fold higher in IC50: 25 nM for the first, 74 nM for the second.

Going from CC(=O)N[C@@H](C)CO[C@H]1C[C@H](COc2nccc(OCC(F)F)c2Cl)C1 [Compound I-315] to CC(=O)N[C@@H](C)CO[C@H]1C[C@H](COc2nccc(OCC(F)(F)F)c2Cl)C1 [Compound I-326], the IC50 falls from 503 nM to 280 nM (1.8-fold). The second is the more potent here.

CC(=O)N[C@@H](C)CO[C@H]1C[C@H](COc2nccc(C3=CCCCC3)c2Cl)C1 [Compound I-317] and CC(=O)N[C@@H](C)CO[C@H]1C[C@H](COc2nccc(C3=CCCC3)c2Cl)C1 [Compound I-335] are within 1.5-fold of each other in IC50: 14 nM for the first, 18 nM for the second.

Going from CC(=O)N[C@@H](C)CO[C@H]1C[C@H](COc2nccc3ccccc23)C1 [Compound I-318] to CC(=O)N[C@@H](C)CO[C@H]1C[C@H](COc2nccc3cc(F)ccc23)C1 [Compound I-334], the IC50 rises from 49 nM to 179 nM (3.7-fold).

Going from CC(=O)N[C@@H](C)CO[C@H]1C[C@H](COc2nccc(-c3ccc(F)cc3)c2C#N)C1 [Compound I-319] to CC(=O)N[C@@H](C)CO[C@H]1C[C@H](COc2nccc(-c3ccc(C(F)(F)F)cc3)c2Cl)C1 [Compound I-320], the IC50 falls from 281 nM to 67 nM (4.2-fold).

CC(=O)N[C@@H](C)CO[C@H]1C[C@H](COc2nccc(N3CCCCC3)c2Cl)C1 [Compound I-324] and CC(=O)N[C@@H](C)CO[C@H]1C[C@H](COc2nccc(N3CCCC3)c2Cl)C1 [Compound I-325] are within 1.5-fold of each other in IC50: 51 nM for the first, 37 nM for the second.

CC(=O)N[C@@H](C)CO[C@H]1C[C@H](COc2nccc(-n3cc(C(F)(F)F)cn3)c2Cl)C1 [Compound I-327] and CC(=O)N[C@@H](C)CO[C@H]1C[C@H](COc2nccc(N3CCC(F)CC3)c2Cl)C1 [Compound I-330] are within 1.5-fold of each other in IC50: 80 nM for the first, 105 nM for the second.

CC(=O)N[C@@H](C)CO[C@H]1C[C@H](COc2nccc3c2CCN3Cc2ccccc2)C1 [Compound I-328] and CC(=O)N[C@@H](C)CO[C@H]1C[C@H](COc2nccc3c2ccn3Cc2ccccc2)C1 [Compound I-329] are within 1.5-fold of each other in IC50: 18 nM for the first, 14 nM for the second.

Going from CC(=O)N[C@@H](C)CO[C@H]1C[C@H](COc2nccc3c2OCC2CCCN32)C1 (stereo partly drawn) [Compound I-331] to CC(=O)N[C@@H](C)CO[C@H]1C[C@H](COc2nccc(N3C4CCC3CC4)c2Cl)C1 [Compound I-332], the IC50 falls from 470 nM to 56 nM (8.4-fold). The second is the more potent here.

Going from CC(=O)N[C@@H](C)CO[C@H]1C[C@H](COc2nccc(-c3csc(C)n3)c2C)C1 [Compound I-333] to CC(=O)N[C@@H](C)CO[C@H]1C[C@H](COc2nccc(C3=CCCC3)c2C)C1 [Compound I-336], the IC50 falls from 203 nM to 25 nM (8.1-fold). The second is the more potent here.

Going from CC(=O)N[C@@H](C)CO[C@H]1C[C@H](COc2nccc(N3CC4(CCC4)C3)c2Cl)C1 [Compound I-337] to CC(=O)N[C@@H](C)CO[C@H]1C[C@H](COc2ncnc(N3CCCC3)c2Cl)C1 [Compound I-338], the IC50 rises from 7 nM to 26 nM (3.7-fold).

Going from CC(=O)N[C@@H](C)CO[C@H]1C[C@H](COc2nccc(NC(=O)c3ccccc3)c2Cl)C1 [Compound I-339] to CC(=O)N[C@@H](C)CO[C@H]1C[C@H](COc2ncnc(OC(C)c3ccccc3)c2Cl)C1 (stereo partly drawn) [Compound I-341], the IC50 rises from 35 nM to 119 nM (3.4-fold). The first is the more potent here.

CC(=O)N[C@@H](C)CO[C@H]1C[C@H](COc2ncnc(NCc3cccc(Cl)c3)c2Cl)C1 [Compound I-340] was tested, and the IC50 was 21 nM.
